Common to all, as to assay type: cell-based, human
In experiment [1] the test system is Z138 cells. The experiment can be described thus: Viability of MCL cells after inhibition of HDAC6.
Experiment [2] concerns Z138 MCL cells. The experiment can be described thus: CellTiter-Blue cell viability, combination (CI analysis). The note with it: Z138, 72 hours, single agent. An excerpt:
Cell viability was next assessed using the CellTiter-Blue reagent (Promega). The results of these experiments are shown in FIG. 8 and in the Table below.
A general note: Alamar Blue is a resazurin reagent that responds to reducing activity.

In experiment [3] the test system is Mino cells. The experiment can be described thus: Viability of MCL cells after inhibition of HDAC6.
The test system of experiment [4] is Mino MCL cells. The experiment can be described thus: CellTiter-Blue cell viability, combination (CI analysis). The conditions noted are these: 72 hours, single agent. An excerpt: Cell viability was next assessed using the CellTiter-Blue reagent (Promega).
For experiment [5], the system named is Z138 cells. Put plainly: Apoptosis by 7-AAD/Annexin V flow cytometry. The conditions noted are these: Z138, 48 hours; Compound A 3 or 12.5 μM, ibrutinib 10 or 30 μM, alone or combined (FIGS. 2-3). An excerpt:
(§1) Annexin/PI flow cytometric analysis was used to determine percentage of apoptotic cells. […]
Background: A flow cytometer gives signals particle by particle.

For experiment [6], the system named is Mino cells. Put plainly: Apoptosis by 7-AAD/Annexin V flow cytometry. The conditions noted are these: 48 hours, Compound A 3 or 12.5 μM, ibrutinib 10 or 30 μM, alone or combined (FIGS. 2-3).
Source text: as §1

The subject of experiment [7] is Mino cells. The experiment can be described thus: Cell cycle analysis by propidium iodide flow cytometry. The conditions noted are these: 48 hours, Compound A 13 μM, ibrutinib 10 μM, alone or combined (FIG. 5). The method, then: Cells were fixed and stained with propidium iodide (PI) and were analyzed by flow cytometry.
[8] abbreviates: at Fa of combination dose 1.3E−6/3.1E−6.
The mark [9] stands for this setting: at Fa of combination dose 2.5E−6/6.2E−6.
Where [10] appears, read: at Fa of combination dose 5.0E−6/12.5E−6.
Setting [11] is: at Fa of combination dose 10.0E−6/25.0E−6.
Setting [12] is: at Fa of combination dose 20.0E−6/50.0E−6.
Where [13] appears, read: at Fa of combination dose 78.1E−9/195.3E−9.
Where [14] appears, read: at Fa of combination dose 156.3E−9/390.6E−9.
Setting [15] is: at Fa of combination dose 312.5E−9/781.2E−9.
Where [16] appears, read: at Fa of combination dose 625.0E−9/1.6E−6.

2 compounds from patent US20150105409A1, “HDAC INHIBITORS, ALONE OR IN COMBINATION WITH BTK INHIBITORS, FOR TREATING NONHODGKIN'S LYMPHOMA” (Acetylon Pharmaceticals, Inc., priority 2013, published 2015) can be followed below.

SMILES strings stand for the structures.

In the case of `O=C(CCCCCCNC(=O)c1cnc(N(c2ccccc2)c2ccccc2)nc1)NO` [Compound A, 2-(diphenylamino)-N-(7-(hydroxyamino)-7-oxoheptyl)pyrimidine-5-carboxamide], the cell viability entry in experiment [1] and in experiment [3] was “decreased viability” throughout. For the same compound, the “Dm (Cmpd A)” value is 1.7E−6 in experiment [2] (setting [8]); 3.4E−6 in experiment [2] (setting [9]); 6.8E−6 in experiment [2] (setting [10]); 13.7E−6 in experiment [2] (setting [11]); 27.7E−6 in experiment [2] (setting [12]); 100.1E−9 in experiment [2] (setting [13]). In addition, the “Dm (Cmpd A)” value is listed as 202.2E−9 in experiment [2] (setting [14]); 408.3E−9 in experiment [2] (setting [15]); 824.5E−9 in experiment [2] (setting [16]); 1.6E−6 in experiment [4] (setting [8]); 13.1E−6 in experiment [4] (setting [9]); 108.1E−6 in experiment [4] (setting [10]). Besides, the “Dm (Cmpd A)” value amounted to 894.0E−6 in experiment [4] (setting [11]); 7.4E−3 in experiment [4] (setting [12]); 338.3E−12 in experiment [4] (setting [13]); 2.8E−9 in experiment [4] (setting [14]); 23.1E−9 in experiment [4] (setting [15]); 191.2E−9 in experiment [4] (setting [16]). In addition, the induction of apoptosis entry in experiment [5] and in experiment [6] was “induction of apoptosis” in each case. Also, in experiment [7], the cell cycle distribution result is “little effect on cell cycle distribution”.

In the case of `C=CC(=O)N1CCC[C@@H](n2nc(-c3ccc(Oc4ccccc4)cc3)c3c(N)ncnc32)C1` [ibrutinib, reference compound], the “Dm (PCI-32765)” value is 56.7E−6 in experiment [2] (setting [8]); 146.1E−6 in experiment [2] (setting [9]); 376.3E−6 in experiment [2] (setting [10]); 969.0E−6 in experiment [2] (setting [11]); 2.5E−3 in experiment [2] (setting [12]); 1.3E−6 in experiment [2] (setting [13]). In addition, the “Dm (PCI-32765)” value in experiment [2] (setting [14]) was found to be 3.3E−6; in experiment [2] (setting [15]) it was 8.6E−6; in experiment [2] (setting [16]), 22.0E−6; in experiment [4] (setting [8]) it was 5.1E−6; in experiment [4] (setting [9]), 10.2E−6; in experiment [4] (setting [10]), 20.5E−6. Besides, the “Dm (PCI-32765)” value is on record as 83.0E−6 in experiment [4] (setting [12]); 308.7E−9 in experiment [4] (setting [13]); 621.3E−9 in experiment [4] (setting [14]); 1.3E−6 in experiment [4] (setting [15]); 2.5E−6 in experiment [4] (setting [16]). For the same compound, the induction of apoptosis result in experiment [5] and in experiment [6] was “induction of apoptosis” each time. The cell cycle distribution result in experiment [7] is given as “little effect on cell cycle distribution”.
